Tests used:
CEM/VLB100 cells (MDR+) = test: cells; assay type: cell-based, human; settings: for IC50: Homo sapiens, CEM/VLB100, read-out: IC50 CEM/VLB100 (MDR + HTL), CEM/VLB100, MTT; for Degree of resistance (CEM/VLB100): IC50 of the resistant line divided by IC50 of sensitive CEM cells
Text: A second evaluation of the cytotoxicity of the acid labile, lipophilic molecular conjugates was undertaken.
These lines included a uterine sarcoma line, MES-SA, and its doxorubicin-resistant subline, MES-SA/Dx5. See W. G. Harker, F. R MacKintosh, and B. I. Sikic. Development and characterization of a human sarcoma cell line, MES-SA, sensitive to multiple drugs. Cancer Research 43: 4943-4950 (1983); W. G. Harker and B. I. Sikic. Multidrug (pleiotropic) resistance in doxorubicin-selected variants of the human sarcoma cell line MES-SA. Cancer Research 45: 4091 4096 (1985).
The second set of cells tested, CCRF-CEM or simply CEM, were derived from the blood of a patient with acute lymphoblastic leukemia. G. E. Foley, H. Lazarus, S. Farber, B. G. Uzman, B. A. Boone, and R E. McCarthy. Continuous culture of human lymphoblasts from peripheral blood of a child with acute leukemia. Cancer 18: 522-529 (1965). The subline CEM/VLB100 was developed to be resistant to up to vinblastine at 100 ng/ml. W. T. Beck, T. J. Mueller, and L. R. Tanzer. Altered surface membrane glycoproteins in Vinca alkaloid-resistant human leukemic lymphoblasts. Cancer Research 39: 2070-2076 (1979). Drug resistance is achieved by overexpression of the MDR1 gene. Resistance in the CEM subline designated CEM/VM-1-5, however, is “atypical.” M. K. Danks, J. C. Yalowich, and W. T. Beck. Atypical multiple drug resistance in a human leukemic cell line selected for resistance to teniposide (VM-26). Cancer Research 47: 1297-1301 (1987). The classes of drugs included in the “classic” multiple drug resistance phenotype are Vinca alkaloids, anthracyclines, epipodophyllotoxins and antibiotics. However, CEM/VM-1-5 cells retain sensitivity to the Vinca alkaloids despite resistance and cross-resistance to etoposide, anthracyclines and mitoxantrone. Danks, M. K.; Schmidt, C. A.; Cirtain, M. C.; Suttle, D. P.; Beck, W. T., Altered catalytic activity of and DNA cleavage by DNA topoisomerase II from human leukemic cells selected for resistance to VM-26. Biochemistry 1988, 27, 8861-8869. Resistance in CEM/VM-1-5 cells is effected by over expression of the […]. CEM, CEM/VLB100 and CEM/VM-1-5 cells were obtained from Dr. WT Beck, University of Illinois at Chicago.

[1] = Stability in human plasma at 37° C.; assay type: in vitro ADME
Method: The stability of the acid labile, lipophilic molecular conjugates to hydrolysis in plasma was evaluated to determine their potential to release the active cancer chemotherapeutic agents into systemic circulation and thereby cause general off target toxicity (“side effects”). The conjugates were incubated with plasma of mouse, rat and human origin.
HPLC grade Methanol from Fisher (Fair lawn, NJ, USA). Part No: A452-4 (074833). HPLC grade Water from Fisher (Fair lawn, NJ, USA). Part No: W5-4 (073352). Drug-free mouse, rat and human plasmas were purchased from Innovative Research Inc. (Southfield, Mich., USA). LIPOSYN® I.V. (30% soybean oil and egg yolk phospholipids, Abbott Laboratories) Fat Emulsion from Hospira, Inc. (Lake Forest, Ill.).
Each drug (ART 198, ART 273, ART 488 and ART 489) was prepared in triplicate in mouse, rat and human plasma individually at […] concentration and vortexed for 1 minute and placed in a water bath at 37° C. at a shake rate of 75 per minute. Samples were drawn at time points of 0, 15, 30, 45, 60, 75, 90, 105, 120, 135, 150, 165, 180, 210, 240, 300, 360 and 480 minutes.
Chromatographic separation of the compounds was performed on a Waters Acquity UPLC™ using a BEH C18 column (1.7 μm, 2.1×50 mm). The mobile phase consisted of Methanol: 0.1% Formic acid (80:20). The flow rate was 0.3 ml/min; the sample injection volume was 5 μL, resulting in a 3 minute run time.
The MS instrumentation consisted of a Waters Micromass Quattro Micro™ triple-quadrupole system (Manchester, UK). The MS system was controlled by a 4.0 version of MassLynx software. Ionization was performed in the positive electrospray ionization mode. MS/MS conditions were the following: capillary voltage 3.02 kV; cone voltage 50 v; extractor voltage 5 v; and RF lens voltage 0.5 v. The source and desolvation temperatures were 100° C. and 400° C. respectively, and the desolvation and cone gas flow were 400 and 30 L/hr, respectively.
The selected mass-to-charge (m/z) ratio transitions of the ART 198 used in the selected ion monitoring (SIM) were: for ART 198, 617 (M+K)^+, for ART 273, 589 (M+K)^+, for ART 488, 913 (M+Na)^+, and for ART 489, 957 (M+Na)^+. The dwell time was set at 200 msec. MS conditions were optimized using direct infusion of standard solutions prepared in methanol and delivered by a syringe pump at a flow rate of 20 μL/min.
Samples of 100 μL were collected at time points of 0, 15, 30, 45, 60, 75, 90, 105, 120, 135, 150, 165, 180, 210, 240, 300, 360 and 480 minutes respectively and the reaction was terminated with methanol. In a separate set of experiments the acid labile, lipophilic molecular conjugates were dissolved in a small amount of ethanol and diluted into a lipid emulsion (Liposyn®) and added to mouse and human plasma before incubation and the hydrolysis of the conjugates was similarly measured. Collected plasma samples of 100 μL containing drug were placed in separate Eppendorf micro centrifuge tubes for processing. Methanol (200 μL) was added to extract the drug using the protein precipitation technique. The micro tubes were then vortex mixed for 10 minutes and centrifuged for 15 minutes at a speed of 10,000 rpm (Eppendorf 5415C centrifuge). The supernatant was collected and filtered using a 0.45 μm filter (Waters 13 mm GHP 0.45 μm) before analysis.
The weighted linear least-squares (1/x) regression was used as the mathematical model. The coefficient (r) for the compounds ranged from 0.9925 to 0.9999. The calibration range was selected according to the concentrations anticipated in the samples to be determined.
Samples were collected at various times and the percent remaining of the acid labile, lipophilic molecular conjugate of the cancer chemotherapeutic agent was determined along with the percent of the chemotherapeutic agent released from the hydrolysis of the conjugate.

COC(=O)[C@@]12OC[C@]34[C@H]([C@@H](O)[C@@H]1O)[C@@]1(C)CC(=O)C(O)=C(C)[C@@H]1C[C@H]3OC(=O)C(OC(=O)CC1(O)CCCCC1)[C@@H]24 (stereo partly drawn) [ART 198]
IC50 (CEM/VLB100 cells (MDR+)): 7190 ± 1920 nM
Degree of resistance (CEM/VLB100) (CEM/VLB100 cells (MDR+)): 76 ± 52
percent remaining of initial drug ([1]; 0 min): 100%
percent remaining of initial drug ([1]; 15 min): 99.3%
percent remaining of initial drug ([1]; 30 min): 99.1%
percent remaining of initial drug ([1]; 45 min): 94.9%
percent remaining of initial drug ([1]; 60 min): 94.6%
percent remaining of initial drug ([1]; 75 min): 93.1%
percent remaining of initial drug ([1]; 90 min): 89.9%
percent remaining of initial drug ([1]; 105 min): 87.0%
percent remaining of initial drug ([1]; 120 min): 68.5%
percent remaining of initial drug ([1]; 135 min): 66.4%
percent remaining of initial drug ([1]; 150 min): 61.1%
percent remaining of initial drug ([1]; 165 min): 59.6%
percent remaining of initial drug ([1]; 180 min): 48.6%
percent remaining of initial drug ([1]; 210 min): 47.6%
percent remaining of initial drug ([1]; 240 min): 46.0%
percent remaining of initial drug ([1]; 300 min): 44.4%
percent remaining of initial drug ([1]; 360 min): 39.6%
percent remaining of initial drug ([1]; 480 min): 34.2%

CCCCCCCCCCCCCCCC1OCC(COC(=O)O[C@@H]2C(=O)C=C(C)[C@@H]3C[C@H]4OC(=O)C(OC(=O)CC(O)(C(C)C)C(C)C)C5[C@@H](C)[C@@H](O)[C@@]6(O)OC[C@@]54C6[C@@]23C)O1 (stereo partly drawn) [ART 488]
IC50 (CEM/VLB100 cells (MDR+)): 34 ± 12 nM
Degree of resistance (CEM/VLB100) (CEM/VLB100 cells (MDR+)): 9 ± 4
percent remaining of initial drug ([1]; 0 min): 100%
percent remaining of initial drug ([1]; 15 min): 90.8%
percent remaining of initial drug ([1]; 30 min): 89.1%
percent remaining of initial drug ([1]; 45 min): 87.8%
percent remaining of initial drug ([1]; 60 min): 87.9%
percent remaining of initial drug ([1]; 75 min): 87.9%
percent remaining of initial drug ([1]; 90 min): 87.1%
percent remaining of initial drug ([1]; 105 min): 86.2%
percent remaining of initial drug ([1]; 120 min): 85.3%
percent remaining of initial drug ([1]; 135 min): 84.0%
percent remaining of initial drug ([1]; 150 min): 82.7%
percent remaining of initial drug ([1]; 165 min): 81.1%
percent remaining of initial drug ([1]; 180 min): 78.6%
percent remaining of initial drug ([1]; 210 min): 78.1%
percent remaining of initial drug ([1]; 240 min): 76.5%
percent remaining of initial drug ([1]; 300 min): 59.3%
percent remaining of initial drug ([1]; 360 min): 59.8%
percent remaining of initial drug ([1]; 480 min): 43.6%

CCCCCCCCCCCCCCCC1OCC(COC(=O)OC2=C(C)[C@@H]3C[C@H]4OC(=O)C(OC(=O)CC5(O)CCCCC5)[C@H]5[C@]6(C(=O)OC)OC[C@]45[C@H]([C@@H](O)[C@@H]6O)[C@@]3(C)CC2=O)O1 (stereo partly drawn) [ART 489]
IC50 (CEM/VLB100 cells (MDR+)): 670 ± 71 nM
Degree of resistance (CEM/VLB100) (CEM/VLB100 cells (MDR+)): 33 ± 0
percent remaining of initial drug ([1]; 0 min): 100%
percent remaining of initial drug ([1]; 15 min): 99.3%
percent remaining of initial drug ([1]; 30 min): 98.8%
percent remaining of initial drug ([1]; 45 min): 98.4%
percent remaining of initial drug ([1]; 60 min): 97.4%
percent remaining of initial drug ([1]; 75 min): 94.6%
percent remaining of initial drug ([1]; 90 min): 93.7%
percent remaining of initial drug ([1]; 105 min): 93.0%
percent remaining of initial drug ([1]; 120 min): 91.9%
percent remaining of initial drug ([1]; 135 min): 91.7%
percent remaining of initial drug ([1]; 150 min): 90.9%
percent remaining of initial drug ([1]; 165 min): 90.4%
percent remaining of initial drug ([1]; 180 min): 90.1%
percent remaining of initial drug ([1]; 210 min): 89.0%
percent remaining of initial drug ([1]; 240 min): 86.7%
percent remaining of initial drug ([1]; 300 min): 84.1%
percent remaining of initial drug ([1]; 360 min): 78.7%
percent remaining of initial drug ([1]; 480 min): 65.9%

Reference: patent US10172957B2, “Acid-labile lipophilic prodrugs of cancer chemotherapeutic agents” (priority 2011, dated 2019)
